Experimental data reported in patent US10722496B2, “2-iminobiotin for use in the treatment of brain cell injury” (Neurophyxia B.V., priority 2015, dated 2020).

How the values were obtained:
[1] = test system: IMR-32 cells; test: Nitrate/nitrite Griess assay in culture media; format: cell-based, human; settings: data not shown
Description: In vitro hypoxia was induced in the cell cultures by using our recently described system with minor modifications (Huang et al., 2013b; Weber et al., 2015; Zitta et al., 2010). Enzyme stock solutions (100×) of catalase and glucose oxidase (both from Sigma-Aldrich) were prepared in cell culture medium (DMEM/F12, 1% FCS; final concentration: 120 U/ml and 2 U/ml respectively; Sigma-Aldrich) leading to a decrease of partial pressure of oxygen (pO2) below 10 mmHg within 5 minutes. Hypoxic conditions were confirmed by using a tissue oxygen pressure monitor (LICOX® CMP Oxygen Catheter; Integra, Plainsboro, USA). After 7 hours of hypoxia, the cells were washed twice with PBS (PAA) and fresh normoxic medium supplemented with solvent (citrate buffer 1%) or 2-IB (10, 30, 50, 100 and 300 ng/mL) was added to the cells. Investigations of cell damage, metabolic activity, ROS, hydrogen peroxide, nitrite/nitrate production, erkl/2, akt and stat5 phosphorylation as well as cell stress protein expression were performed with cell culture media or cell protein (FIG. 1).
Nitrate and nitrite concentrations were evaluated in culture media using a Griess colorimetric assay kit (Sigma-Aldrich) according to the manufacturer's instructions. Absorbance at 540 nm was measured in samples and standards using an ELISA reader (Tecan, Crailsheim, Germany).

[2] = test system: IMR-32 cell cultures; test: LDH assay after hypoxia under mild hypothermia; format: cell-based, human; settings: 30 ng/ml 2-IB post-hypoxic, 25 hours mild hypothermia (33.5° C.)
Description: (§1) In-vitro hypoxia was induced for 7 hours using IMR-32 cell cultures. After the hypoxic insult, cultures were subjected to 25 hours of mild hypothermia (33.5° C.) and were incubated with or without 2-IB (10, 30, 50, 100 and 300 ng/ml). Cell morphology was evaluated by brightfield microscopy and cell damage was analyzed by LDH assays. Production of reactive oxygen species (ROS) was measured using fluorometric assays. Western blotting for PARP and phosphorylated as well as unphosphorylated akt and erkl/2 was performed.

[3] = test system: IMR-32 cell cultures; test: Hydrogen peroxide after hypoxia under mild hypothermia; format: cell-based, human; settings: post-hypoxic application
Description: as §1

[4] = test system: 4VO rat model; test: Morris water maze after four-vessel occlusion (4VO); format: in vivo; settings: for memory test, time spent in the right quadrant on day 32: 12 and 24 hours, mean±SD
Description: The rats were anesthetized using ketamine (90 mg/kg) and xylazine sodium ([…]), as described earlier (Meilin et al., 2014). The first cervical vertebrata was exposed and the vertebral arteries were permanently occluded by electrocauterization. The common carotid arteries were isolated through a ventral midline neck incision and lifted using a 4.0 silk suture ligature, placed around them.
Twenty-four hours post vertebral arterial occlusion, the animals were reanesthetized using isoflurane. The common carotid arteries were exposed and occluded using microaneurysm clips for 15 minutes. After removing the clips reperfusion occurred. The skin of the incision at the neck was sutured using 4-0 silk suture. During the operation animal's core temperature was monitored using a rectal probe (Model 400; YSI Inc., Yellow Springs, Ohio, USA) connected to a thermometer (Model 8402-00; Cole-Parmer Instrument Co. Ltd, London, UK). The ischemic insult was initiated when a rectal temperature of 37-38° C. was achieved, and this temperature was maintained throughout the procedure using a heating mattress.
During the acclimatization period rats were randomly assigned to experimental groups. The animals were subjected to 4VO per cage or one rat per cage was subjected to HI. Rats received either vehicle (normal saline at pH 3.8-4.0) or 2-IB (1.1 mg/kg, 3.3 mg/kg, 10 mg/kg and 30 mg/kg dissolved in 5 ml/kg normal saline at pH 3.8-4.0). Each dosing group was kept in separate cages to avoid cross-contamination by consuming stools during the study period. The experimental groups were as follows.
Tests were performed during day-time. Rats were introduced to a standardized 1.2 m-diameter pool filled with water for 120 seconds or until they located a platform hidden 1 cm below the water surface. Several visual cues were provided within the room in which the pool was located to allow rats to spatially navigate the water maze. […] Rats were allowed two attempts to find the hidden platform, and this learning test was performed over a period of 4 days (days 28-31). The memory test was performed on the fifth day (day 32), at which time the hidden platform was removed, and rats were placed in the pool for a single 60-second trial. The amount of time that each rat spent in the quadrant, where the hidden platform had previously been located, was recorded by an observer who was blinded to the experimental groups.
The Morris water maze was used to evaluate how well the rats remembered the location of the hidden platform, and whether they had learned to navigate towards the appropriate quadrant. The time that the rat spent in the right quadrant was measured. This was considered the primary outcome.
During the learning test the time to find a hidden platform in the water was calculated. Also the area under the curve (AUC) of the subsequent learning tests was calculated. These parameters were considered secondary outcomes.

N=C1N[C@H]2[C@H](CS[C@H]2CCCCC(=O)O)N1 [2-IB, 2-iminobiotin]
nitrate and nitrite concentrations in culture media [1]: neither nitrate nor nitrite concentrations were influenced by hypoxia or by 2-IB
hypoxia-induced LDH release [2]: reduced the hypoxia-induced LDH release even under hypothermia
generation of hydrogen peroxide [3]: did not influence generation of hydrogen peroxide
AUC of the learning test from day 28 until 31 ([4]; 1.1 mg/kg/dose s.c.): 276±85
memory test, time spent in the right quadrant on day 32 ([4]; 1.1 mg/kg/dose s.c. upon reperfusion): 10.7 ± 4.4 s
AUC of the learning test from day 28 until 31 ([4]; 3.3 mg/kg/dose s.c.): 266±64
memory test, time spent in the right quadrant on day 32 ([4]; 3.3 mg/kg/dose s.c. upon reperfusion): 12.7 ± 6.7 s
AUC of the learning test from day 28 until 31 ([4]; 10 mg/kg/dose s.c.): 297±79
memory test, time spent in the right quadrant on day 32 ([4]; 10 mg/kg/dose s.c. upon reperfusion): 12.0 ± 7.3 s
AUC of the learning test from day 28 until 31 ([4]; 30 mg/kg/dose s.c.): 287±89
memory test, time spent in the right quadrant on day 32 ([4]; 30 mg/kg/dose s.c. upon reperfusion): 12.5 ± 6.0 s
learning test day 28 to day 31, time to find the hidden platform vs vehicle-treated rats ([4]; 1.1 (p<0.05), 3.3 (p<0.01) and 30 mg/kg/dose (p<0.05), Dunnett's post hoc): significant difference
